Test results: patent US10442815B2, “Tricyclic heterocyclic compounds as phosphoinositide 3-kinase inhibitors” (Karus Therapeutics Limited, priority 2015, dated 2019)

Tests used:
Experiment in all cases: Ki determination, non-radiometric ADP-Glo assay (Proqinase GmbH)
Assay type in all cases: biochemical
PI3K p110α = target: T1, PI3K p110α (Homo sapiens, UniProt P42336)
T1 construct: assay run at Proqinase GmbH
Text: (§1) Biochemical activity against class I PI3K isoforms was confirmed by either Ki determination using the non-radiometric ADP-Glo™ assay (Promega, Madison, Wis., USA) at Proqinase GmbH, or IC50 determination using the HTRF biochemical assay at Reaction Biology Corp.

PI3K p110β = target: T2, PI3K p110β (Homo sapiens, UniProt P42338)
T2 construct: assay run at Proqinase GmbH
T2 sequence (P42338 whole entry): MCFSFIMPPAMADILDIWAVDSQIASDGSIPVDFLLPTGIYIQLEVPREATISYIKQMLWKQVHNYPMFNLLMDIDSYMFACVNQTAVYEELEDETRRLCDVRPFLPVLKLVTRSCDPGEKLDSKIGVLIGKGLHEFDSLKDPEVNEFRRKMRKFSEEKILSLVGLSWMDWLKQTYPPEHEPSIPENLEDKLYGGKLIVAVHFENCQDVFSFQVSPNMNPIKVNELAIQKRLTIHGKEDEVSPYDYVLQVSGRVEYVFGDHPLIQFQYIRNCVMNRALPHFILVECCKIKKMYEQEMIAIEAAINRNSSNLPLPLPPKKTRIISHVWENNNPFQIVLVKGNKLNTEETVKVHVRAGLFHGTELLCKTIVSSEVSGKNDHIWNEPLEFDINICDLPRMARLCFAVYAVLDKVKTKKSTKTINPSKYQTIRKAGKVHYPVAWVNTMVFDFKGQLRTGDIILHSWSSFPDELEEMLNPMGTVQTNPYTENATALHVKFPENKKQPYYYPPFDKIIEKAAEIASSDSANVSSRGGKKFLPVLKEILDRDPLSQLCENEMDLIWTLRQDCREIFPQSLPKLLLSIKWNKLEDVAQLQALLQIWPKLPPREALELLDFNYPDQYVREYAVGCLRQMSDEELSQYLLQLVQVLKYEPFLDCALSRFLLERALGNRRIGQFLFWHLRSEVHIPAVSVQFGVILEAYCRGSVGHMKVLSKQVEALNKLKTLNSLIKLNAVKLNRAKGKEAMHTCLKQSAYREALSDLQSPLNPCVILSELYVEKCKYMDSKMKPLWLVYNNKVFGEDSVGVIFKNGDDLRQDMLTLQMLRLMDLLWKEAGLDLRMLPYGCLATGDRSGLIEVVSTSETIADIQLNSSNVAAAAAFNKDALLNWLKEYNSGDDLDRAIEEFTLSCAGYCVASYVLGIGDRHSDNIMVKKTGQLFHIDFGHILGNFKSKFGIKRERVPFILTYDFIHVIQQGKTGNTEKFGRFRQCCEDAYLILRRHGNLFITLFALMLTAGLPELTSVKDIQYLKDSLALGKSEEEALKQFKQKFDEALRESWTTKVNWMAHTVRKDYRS
T2 sequence (P27986 whole entry partner): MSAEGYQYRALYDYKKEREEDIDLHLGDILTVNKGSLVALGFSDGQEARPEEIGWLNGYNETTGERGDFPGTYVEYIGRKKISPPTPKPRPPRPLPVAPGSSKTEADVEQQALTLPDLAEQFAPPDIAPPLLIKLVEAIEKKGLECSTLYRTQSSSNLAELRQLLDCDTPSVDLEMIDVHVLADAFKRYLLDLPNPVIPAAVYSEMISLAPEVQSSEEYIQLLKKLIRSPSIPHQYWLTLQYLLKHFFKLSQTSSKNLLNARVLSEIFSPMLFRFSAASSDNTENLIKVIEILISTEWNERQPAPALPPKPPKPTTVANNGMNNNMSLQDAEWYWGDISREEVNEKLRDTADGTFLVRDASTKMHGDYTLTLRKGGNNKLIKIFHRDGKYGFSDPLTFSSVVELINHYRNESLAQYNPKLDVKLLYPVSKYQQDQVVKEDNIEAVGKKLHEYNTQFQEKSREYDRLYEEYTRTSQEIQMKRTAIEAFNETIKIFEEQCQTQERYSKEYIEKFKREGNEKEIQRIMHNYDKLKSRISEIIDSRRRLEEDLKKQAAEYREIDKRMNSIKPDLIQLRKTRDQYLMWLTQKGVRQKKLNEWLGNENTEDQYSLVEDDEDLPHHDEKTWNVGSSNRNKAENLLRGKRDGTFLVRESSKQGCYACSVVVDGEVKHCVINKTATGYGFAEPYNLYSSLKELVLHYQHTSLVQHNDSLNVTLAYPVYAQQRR
Text: as §1

PI3K p110γ = target: T3, PI3K p110γ (Homo sapiens, UniProt P48736)
T3 construct: assay run at Proqinase GmbH
T3 sequence (P48736 whole entry): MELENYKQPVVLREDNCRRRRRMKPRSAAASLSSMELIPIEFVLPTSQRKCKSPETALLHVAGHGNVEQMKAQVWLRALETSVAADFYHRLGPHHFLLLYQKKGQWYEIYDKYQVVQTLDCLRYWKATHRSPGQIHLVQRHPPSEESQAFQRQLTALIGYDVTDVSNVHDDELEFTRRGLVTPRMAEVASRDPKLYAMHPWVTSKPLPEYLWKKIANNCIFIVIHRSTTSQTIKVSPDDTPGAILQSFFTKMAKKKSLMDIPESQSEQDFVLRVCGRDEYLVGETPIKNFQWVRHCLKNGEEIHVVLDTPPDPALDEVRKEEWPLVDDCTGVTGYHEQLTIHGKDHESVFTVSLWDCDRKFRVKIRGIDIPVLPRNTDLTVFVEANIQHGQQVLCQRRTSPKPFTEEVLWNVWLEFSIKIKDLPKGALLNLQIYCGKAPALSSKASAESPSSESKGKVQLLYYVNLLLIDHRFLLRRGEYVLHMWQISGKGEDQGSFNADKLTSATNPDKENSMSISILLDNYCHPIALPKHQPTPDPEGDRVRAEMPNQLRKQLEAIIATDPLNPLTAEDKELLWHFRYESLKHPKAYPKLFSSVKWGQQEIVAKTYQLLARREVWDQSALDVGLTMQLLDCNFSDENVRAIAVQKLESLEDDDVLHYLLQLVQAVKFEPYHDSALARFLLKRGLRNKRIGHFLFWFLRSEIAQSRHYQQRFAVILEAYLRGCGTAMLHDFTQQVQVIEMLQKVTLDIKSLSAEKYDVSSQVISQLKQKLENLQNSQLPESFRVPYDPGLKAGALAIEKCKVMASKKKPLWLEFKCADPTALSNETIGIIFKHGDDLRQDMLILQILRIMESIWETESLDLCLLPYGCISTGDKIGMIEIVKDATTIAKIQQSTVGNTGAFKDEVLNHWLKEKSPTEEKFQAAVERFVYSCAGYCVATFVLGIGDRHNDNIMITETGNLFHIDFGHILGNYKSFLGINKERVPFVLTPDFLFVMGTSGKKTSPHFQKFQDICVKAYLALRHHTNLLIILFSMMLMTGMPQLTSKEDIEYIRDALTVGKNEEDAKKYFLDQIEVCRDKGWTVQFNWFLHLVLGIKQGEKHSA
Text: as §1

PI3K p110δ = target: T4, PI3K p110δ (Homo sapiens, UniProt O00329)
T4 construct: assay run at Proqinase GmbH
T4 sequence (O00329 whole entry): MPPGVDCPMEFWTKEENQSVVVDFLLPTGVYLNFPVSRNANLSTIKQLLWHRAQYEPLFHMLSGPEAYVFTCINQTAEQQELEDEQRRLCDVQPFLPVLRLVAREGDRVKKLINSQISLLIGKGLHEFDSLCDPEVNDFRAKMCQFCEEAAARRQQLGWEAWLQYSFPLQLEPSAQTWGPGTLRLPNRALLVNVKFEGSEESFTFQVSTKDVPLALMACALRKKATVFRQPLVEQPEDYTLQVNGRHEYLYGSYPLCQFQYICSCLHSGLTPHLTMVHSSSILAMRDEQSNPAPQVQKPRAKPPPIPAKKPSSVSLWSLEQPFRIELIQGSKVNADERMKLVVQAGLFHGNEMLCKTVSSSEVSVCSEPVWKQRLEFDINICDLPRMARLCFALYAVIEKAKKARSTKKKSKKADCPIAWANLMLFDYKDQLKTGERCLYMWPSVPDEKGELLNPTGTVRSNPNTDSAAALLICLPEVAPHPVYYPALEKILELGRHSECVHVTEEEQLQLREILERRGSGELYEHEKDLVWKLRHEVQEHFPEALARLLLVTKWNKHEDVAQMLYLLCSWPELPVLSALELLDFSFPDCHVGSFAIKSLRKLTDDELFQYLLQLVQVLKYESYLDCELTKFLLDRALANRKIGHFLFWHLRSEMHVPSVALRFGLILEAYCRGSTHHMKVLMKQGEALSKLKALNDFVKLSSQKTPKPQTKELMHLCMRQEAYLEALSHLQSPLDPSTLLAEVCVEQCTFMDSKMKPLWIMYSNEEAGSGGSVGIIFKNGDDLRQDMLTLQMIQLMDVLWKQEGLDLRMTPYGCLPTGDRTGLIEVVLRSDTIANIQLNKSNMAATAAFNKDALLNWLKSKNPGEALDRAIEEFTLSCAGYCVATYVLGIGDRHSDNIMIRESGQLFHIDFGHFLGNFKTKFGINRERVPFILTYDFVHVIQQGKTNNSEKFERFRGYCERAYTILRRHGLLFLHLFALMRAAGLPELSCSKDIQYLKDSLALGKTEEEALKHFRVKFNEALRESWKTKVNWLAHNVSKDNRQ
T4 sequence (P27986 whole entry partner): as the sequence (P27986 whole entry partner) above
Text: as §1

T1 sequence (P42336 whole entry): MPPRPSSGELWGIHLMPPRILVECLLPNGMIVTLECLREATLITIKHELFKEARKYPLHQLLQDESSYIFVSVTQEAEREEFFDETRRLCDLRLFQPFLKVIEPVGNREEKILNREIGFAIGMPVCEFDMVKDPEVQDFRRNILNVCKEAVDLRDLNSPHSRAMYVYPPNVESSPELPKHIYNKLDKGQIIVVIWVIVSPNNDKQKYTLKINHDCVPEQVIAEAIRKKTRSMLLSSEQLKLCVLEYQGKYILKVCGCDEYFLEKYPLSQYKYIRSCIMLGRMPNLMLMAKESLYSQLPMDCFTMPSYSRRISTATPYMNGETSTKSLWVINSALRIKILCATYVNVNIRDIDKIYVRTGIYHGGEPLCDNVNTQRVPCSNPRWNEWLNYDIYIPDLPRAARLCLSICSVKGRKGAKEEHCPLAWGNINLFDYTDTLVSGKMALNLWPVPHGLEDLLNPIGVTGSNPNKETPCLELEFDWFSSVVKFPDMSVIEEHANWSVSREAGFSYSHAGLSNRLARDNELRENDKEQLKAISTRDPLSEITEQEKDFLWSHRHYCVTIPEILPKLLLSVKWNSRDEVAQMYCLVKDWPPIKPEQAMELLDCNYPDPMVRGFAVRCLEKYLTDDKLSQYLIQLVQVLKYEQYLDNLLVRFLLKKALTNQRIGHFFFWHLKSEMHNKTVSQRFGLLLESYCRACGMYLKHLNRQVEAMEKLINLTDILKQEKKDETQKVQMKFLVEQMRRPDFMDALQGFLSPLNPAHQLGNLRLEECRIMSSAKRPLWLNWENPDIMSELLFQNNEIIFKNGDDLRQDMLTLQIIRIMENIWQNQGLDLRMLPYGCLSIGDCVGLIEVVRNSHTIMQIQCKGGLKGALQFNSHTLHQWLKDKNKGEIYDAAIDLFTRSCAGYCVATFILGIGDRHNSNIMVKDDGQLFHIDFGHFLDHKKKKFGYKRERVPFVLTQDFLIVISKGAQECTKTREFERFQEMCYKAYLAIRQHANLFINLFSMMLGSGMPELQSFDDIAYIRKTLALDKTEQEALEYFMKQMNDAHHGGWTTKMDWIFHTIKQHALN
T1 sequence (P27986 whole entry partner): as the sequence (P27986 whole entry partner) above

O=S1(=O)CCN(Cc2cnc3oc4c(N5CCOCC5)nc(-c5cccc6[nH]ccc56)nc4c3c2)CC1 [Example A, 4-{[4-(1H-Indol-4-yl)-6-(morpholin-4-yl)-8-oxa-3,5,10-triazatricyclo[7.4.0.0^2,7]trideca-1(13),2(7),3,5,9,11-hexaen-12-yl]methyl]-1λ^6-thiomorpholine-1,1-dione]
Ki (PI3K p110α): 1 to 10 µM
Ki (PI3K p110β): ≤ 0.5 µM
Ki (PI3K p110γ): > 10 µM
Ki (PI3K p110δ): ≤ 0.5 µM

Cc1cc2c(-c3nc(N4CCOCC4)c4oc5ncc(CN6CC[S+]([O-])CC6)cc5c4n3)cccc2[nH]1 [Example AG, 4-{[4-(2-methyl-1H-indol-4-yl)-6-(morpholin-4-yl)-8-oxa-3,5,10-triazatricyclo[7.4.0.0^2^,7]trideca-1(13),2(7),3,5,9,11-hexaen-12-yl]methyl}-1λ^4-thiomorpholin-1-one]
Ki (PI3K p110α): 0.5 to 1 µM
Ki (PI3K p110β): ≤ 0.5 µM
Ki (PI3K p110γ): 1 to 10 µM
Ki (PI3K p110δ): ≤ 0.5 µM

[O-][S+]1CCN(Cc2cnc3oc4c(N5CCOCC5)nc(-c5cccc6[nH]ccc56)nc4c3c2)CC1 [Example AH, 4-{[4-(1H-indol-4-yl)-6-(morpholin-4-yl)-8-oxa-3,5,10-triazatricyclo[7.4.0.0^2^,7]trideca-1(13),2(7),3,5,9,11-hexaen-12-yl]methyl}-1λ^4-thiomorpholin-1-one]
Ki (PI3K p110α): 1 to 10 µM
Ki (PI3K p110β): ≤ 0.5 µM
Ki (PI3K p110γ): > 10 µM
Ki (PI3K p110δ): ≤ 0.5 µM

COc1ccc2c(c1-c1nc(N3CCOCC3)c3oc4ncc(CN5CC[S+]([O-])CC5)cc4c3n1)CCN2 [Example AI, 4-{[4-(5-Methoxy-2,3-dihydro-1H-indol-4-yl)-6-(morpholin-4-yl)-8-oxa-3,5,10-triazatricyclo[7.4.0.0^2^,7]trideca-1(13),2(7),3,5,9,11-hexaen-12-yl]methyl}-1λ^4-thiomorpholin-1-one]
Ki (PI3K p110α): > 10 µM
Ki (PI3K p110β): 1 to 10 µM
Ki (PI3K p110γ): > 10 µM
Ki (PI3K p110δ): ≤ 0.5 µM

[O-][S+]1CCN(Cc2cnc3oc4c(N5CCOCC5)nc(-c5cccc6[nH]cc(F)c56)nc4c3c2)CC1 [Example AJ, 4-{[4-(3-fluoro-1H-indol-4-yl)-6-(morpholin-4-yl)-8-oxa-3,5,10-triazatricyclo[7.4.0.0^2^,7]trideca-1(13),2(7),3,5,9,11-hexaen-12-yl]methyl}-1λ^4-thiomorpholin-1-one]
Ki (PI3K p110α): > 10 µM
Ki (PI3K p110β): 1 to 10 µM
Ki (PI3K p110γ): > 10 µM
Ki (PI3K p110δ): ≤ 0.5 µM

[O-][S+]1CCN(Cc2cnc3sc4c(N5CCOCC5)nc(-c5cccc6[nH]ccc56)nc4c3c2)CC1 [Example AK, 4-{[4-(1H-Indol-4-yl)-6-(morpholin-4-yl)-8-thia-3,5,10-triazatricyclo[7.4.0.0^2^,7]trideca-1(9),2,4,6,10,12-hexaen-12-yl]methyl}-1λ^4-thiomorpholin-1-one]
Ki (PI3K p110α): > 10 µM
Ki (PI3K p110β): 1 to 10 µM
Ki (PI3K p110γ): > 10 µM
Ki (PI3K p110δ): 1 to 10 µM

Cc1c[nH]c2cccc(-c3nc(N4CCOCC4)c4oc5ncc(CN6CC[S+]([O-])CC6)cc5c4n3)c12 [Example AL, 4-{[4-(3-Methyl-1H-indol-4-yl)-6-(morpholin-4-yl)-8-oxa-3,5,10-triazatricyclo[7.4.0.0^2^,7]trideca-1(13),2(7),3,5,9,11-hexaen-12-yl]methyl}-1λ^4-thiomorpholin-1-one]
Ki (PI3K p110α): > 10 µM
Ki (PI3K p110β): > 10 µM
Ki (PI3K p110γ): > 10 µM
Ki (PI3K p110δ): 1 to 10 µM

[O-][S+]1CCN(Cc2cnc3oc4c(N5CCOCC5)nc(-c5cc(Cl)cc6[nH]ccc56)nc4c3c2)CC1 [Example AM, 4-{[4-(6-Chloro-1H-indol-4-yl)-6-(morpholin-4-yl)-8-oxa-3,5,10-triazatricyclo[7.4.0.0^2^,7]trideca-1(13),2(7),3,5,9,11-hexaen-12-yl]methyl}-1λ^4-thiomorpholin-1-one]
Ki (PI3K p110α): > 10 µM
Ki (PI3K p110β): > 10 µM
Ki (PI3K p110γ): > 10 µM
Ki (PI3K p110δ): 1 to 10 µM

N#Cc1c[nH]c2cccc(-c3nc(N4CCOCC4)c4oc5ncc(CN6CC[S+]([O-])CC6)cc5c4n3)c12 [Example AN, 4-[6-(morpholin-4-yl)-12-[(1-oxo-1λ^4-thiomorpholin-4-yl)methyl]-8-oxa-3,5,10-triazatricyclo[7.4.0.0^2,^7]trideca-1(13),2(7),3,5,9,11-hexaen-4-yl]-1H-indole-3-carbonitrile]
Ki (PI3K p110α): > 10 µM
Ki (PI3K p110β): > 10 µM
Ki (PI3K p110γ): > 10 µM
Ki (PI3K p110δ): > 10 µM

CN(CCS(C)(=O)=O)Cc1cnc2oc3c(N4CCOCC4)nc(-c4cccc5[nH]ccc45)nc3c2c1 [Example C, {[4-(1H-Indol-4-yl)-6-(morpholin-4-yl)-8-oxa-3,5,10-triazatricyclo[7.4.0.0^2,7]trideca-1(13),2(7),3,5,9,11-hexaen-12-yl]methyl}(2-methanesulfonylethyl)methylamine]
Ki (PI3K p110α): ≤ 0.5 µM
Ki (PI3K p110β): ≤ 0.5 µM
Ki (PI3K p110γ): 1 to 10 µM
Ki (PI3K p110δ): ≤ 0.5 µM

[O-][S+]1CCN(Cc2cnc3oc4c(N5CCOCC5)nc(-c5cc(F)cc6[nH]ccc56)nc4c3c2)CC1 [Example D]
Ki (PI3K p110α): > 10 µM
Ki (PI3K p110β): ≤ 0.5 µM
Ki (PI3K p110γ): > 10 µM
Ki (PI3K p110δ): ≤ 0.5 µM

[O-][S+]1CCN(Cc2cnc3oc4c(N5CCOCC5)nc(-c5c(F)ccc6[nH]ccc56)nc4c3c2)CC1 [Example E]
Ki (PI3K p110α): 1 to 10 µM
Ki (PI3K p110β): ≤ 0.5 µM
Ki (PI3K p110γ): 1 to 10 µM
Ki (PI3K p110δ): ≤ 0.5 µM

[O-][S+]1CCN(Cc2cnc3oc4c(N5CCOCC5)nc(-c5cc(C(F)(F)F)cc6[nH]ccc56)nc4c3c2)CC1 [Example F]
Ki (PI3K p110α): > 10 µM
Ki (PI3K p110β): > 10 µM
Ki (PI3K p110γ): > 10 µM
Ki (PI3K p110δ): > 10 µM

N=S1(=O)CCN(Cc2cnc3oc4c(N5CCOCC5)nc(-c5cccc6[nH]ccc56)nc4c3c2)CC1 [Example G]
Ki (PI3K p110α): 0.5 to 1 µM
Ki (PI3K p110β): ≤ 0.5 µM
Ki (PI3K p110γ): 1 to 10 µM
Ki (PI3K p110δ): ≤ 0.5 µM

C[C@H](c1cnc2oc3c(N4CCOCC4)nc(-c4cccc5[nH]ccc45)nc3c2c1)N1CCS(=O)(=O)CC1 [Example H, 4-[(1R)-1-[4-(1H-Indol-4-yl)-6-(morpholin-4-yl)-8-oxa-3,5,10-triazatricyclo[7.4.0.0^2,7]trideca-1(13),2,4,6,9,11-hexaen-12-yl]ethyl]-1λ^6-thiomorpholine-1,1-dione]
Ki (PI3K p110α): 0.5 to 1 µM
Ki (PI3K p110β): ≤ 0.5 µM
Ki (PI3K p110γ): 1 to 10 µM
Ki (PI3K p110δ): ≤ 0.5 µM

C[C@@H](c1cnc2oc3c(N4CCOCC4)nc(-c4cccc5[nH]ccc45)nc3c2c1)N1CCS(=O)(=O)CC1 [Example I, 4-[(1S)-1-[4-(1H-Indol-4-yl)-6-(morpholin-4-yl)-8-oxa-3,5,10-triazatricyclo[7.4.0.0^2,7]trideca-1(13),2,4,6,9,11-hexaen-12-yl]ethyl]-1λ^6-thiomorpholine-1,1-dione]
Ki (PI3K p110α): ≤ 0.5 µM
Ki (PI3K p110β): ≤ 0.5 µM
Ki (PI3K p110γ): > 10 µM
Ki (PI3K p110δ): ≤ 0.5 µM

c1cc(-c2nc(N3CCOCC3)c3oc4ncc(CN5C[C@@H]6C[C@H]5CS6)cc4c3n2)c2cc[nH]c2c1 [Example J, 4-(1H-Indol-4-yl)-6-(morpholin-4-yl)-12-[(1 S,4S)-2-thia-5-azabicyclo[2.2.1]heptan-5-ylmethyl]-8-oxa-3,5,10-triazatricyclo[7.4.0.0^2,7]trideca-1(13),2,4,6,9,11-hexaene]
Ki (PI3K p110α): 1 to 10 µM
Ki (PI3K p110β): ≤ 0.5 µM
Ki (PI3K p110γ): > 10 µM
Ki (PI3K p110δ): ≤ 0.5 µM

O=S1(=O)C[C@@H]2C[C@H]1CN2Cc1cnc2oc3c(N4CCOCC4)nc(-c4cccc5[nH]ccc45)nc3c2c1 [Example K, (1S,4S)-5-{[4-(1H-Indol-4-yl)-6-(morpholin-4-yl)-8-oxa-3,5,10-triazatricyclo[7.4.0.0^2,7]trideca-1(13),2,4,6,9,11-hexaen-12-yl]methyl}-2λ^6-thia-5-azabicyclo[2.2.1]heptane-2,2-dione]
Ki (PI3K p110α): 1 to 10 µM
Ki (PI3K p110β): ≤ 0.5 µM
Ki (PI3K p110γ): > 10 µM
Ki (PI3K p110δ): ≤ 0.5 µM

[O-][S+]1CC2CC1CN2Cc1cnc2oc3c(N4CCOCC4)nc(-c4cccc5[nH]ccc45)nc3c2c1 [Example L, (1S,2R,4S)-5-{([4-(1H-Indol-4-yl)-6-(morpholin-4-yl)-8-oxa-3,5,10-triazatricyclo[7.4.0.0^2,7]trideca-1(13),2,4,6,9,11-hexaen-12-yl]methyl}-2-thia-5-azabicyclo[2.2.1]heptan-2-ium-2-olate]
Ki (PI3K p110α): 0.5 to 1 µM
Ki (PI3K p110β): ≤ 0.5 µM
Ki (PI3K p110γ): 1 to 10 µM
Ki (PI3K p110δ): ≤ 0.5 µM

O=C1Cc2c(cccc2-c2nc(N3CCOCC3)c3oc4ncc(CN5CC[S+]([O-])CC5)cc4c3n2)N1 [Example N, 4-[6-(morpholin-4-yl)-12-[(1-oxo-1λ^4-thiomorpholin-4-yl)methyl]-8-oxa-3,5,10-triazatricyclo[7.4.0.0^2,^7]trideca-1(13),2(7),3,5,9,11-hexaen-4-yl]-2,3-dihydro-1H-indol-2-one]
Ki (PI3K p110α): > 10 µM
Ki (PI3K p110β): > 10 µM
Ki (PI3K p110γ): > 10 µM
Ki (PI3K p110δ): > 10 µM

[O-][S+]1CCN(Cc2cnc3oc4c(N5CCOCC5)nc(-c5cccc6c5CCN6)nc4c3c2)CC1 [Example O, 4-{[4-(2,3-Dihydro-1H-indol-4-yl)-6-(morpholin-4-yl)-8-oxa-3,5,10-triazatricyclo[7.4.0.0^2,7]trideca-1(13),2(7),3,5,9,11-hexaen-12-yl]methyl}-1λ^4-thiomorpholin-1-one]
Ki (PI3K p110α): > 10 µM
Ki (PI3K p110β): ≤ 0.5 µM
Ki (PI3K p110γ): > 10 µM
Ki (PI3K p110δ): ≤ 0.5 µM

Cc1ccc2[nH]ccc2c1-c1nc(N2CCOCC2)c2oc3ncc(CN4CC[S+]([O-])CC4)cc3c2n1 [Example P, 4-{[4-(5-Methyl-1H-indol-4-yl)-6-(morpholin-4-yl)-8-oxa-3,5,10-triazatricyclo[7.4.0.0^2,7]trideca-1(9),2,4,6,10,12-hexaen-12-yl]methyl}-1λ^4-thiomorpholin-1-one]
Ki (PI3K p110α): 1 to 10 µM
Ki (PI3K p110β): ≤ 0.5 µM
Ki (PI3K p110γ): 1 to 10 µM
Ki (PI3K p110δ): ≤ 0.5 µM

[O-][S+]1CCN(Cc2cnc3oc4c(N5CCOCC5)nc(-c5ccc(F)c6[nH]ccc56)nc4c3c2)CC1 [Example Q, 4-{[4-(7-Fluoro-1H-indol-4-yl)-6-(morpholin-4-yl)-8-oxa-3,5,10-triazatricyclo[7.4.0.0^2,7]trideca-1(13),2(7),3,5,9,11-hexaen-12-yl]methyl}-1λ^4-thiomorpholin-1-one]
Ki (PI3K p110α): > 10 µM
Ki (PI3K p110β): 1 to 10 µM
Ki (PI3K p110γ): > 10 µM
Ki (PI3K p110δ): ≤ 0.5 µM
